Test results published in patent US20160184271A1, “Amino Acid Composition for Use in the Treatment of a PDD” (N.V. Nutricia, priority 2013, published 2016).

Target: mTOR (Homo sapiens, UniProt P42345)
Experiment: in vitro effect of amino acids on mTOR
Type: biochemical
Details: for effect on mTOR (inhibitory or activating): in vitro

Row | SMILES | concentration having a comparable inhibitory effect on mTor (1 mM rapamycin compared with 10 mM lysine) [mM] | effect on mTOR (inhibitory or activating)
1 | NCCCC[C@H](N)C(=O)O [lysine] | 10 | 
2 | NCC(=O)O [glycine] |  | inhibitory effect of mTOR
3 | CC[C@H](C)[C@H](N)C(=O)O [isoleucine] |  | mTOR activating effect
4 | N[C@@H](Cc1ccccc1)C(=O)O [Phenylalanine, phenylalanine] |  | inhibitory effect of mTOR
5 | CC(C)C[C@H](N)C(=O)O [leucine] |  | mTOR activating effect
6 | CC(C)[C@H](N)C(=O)O [valine] |  | mTOR activating effect
